The text below walks through data of patent US20100240591A1, “TPP II INHIBITORS FOR USE IN THE TREATMENT OF AUTOIMMUNE AND INFLAMMATORY DISEASES AND TRANSPLANT REJECTION” (ONCOREG AB, priority 2007, published 2010).

In test [1] the test system is Subtilisin. As to conditions: bacterial homologue of the eukaryotic TPP II; cited from earlier work.
The target in test [2] is T1, TPPII (Mus musculus, UniProt Q64514). Nature of the test: Inhibition of cleavage of AAF-AMC by enriched TPP II (fluorometric peptidase assay). Format: biochemical. The arrangement: 1 ug of high molecular weight protein was used as enzyme in peptidase assays; endogenous in cells; EL-4 (mouse T lymphoma) by inference. To be noted: for cleavage of AAF-AMC, single reading: arbitrary but relative units; for cleavage of AAF-AMC, mean: mean of three readings. How it is done:
Protein Purification, Peptidase Assays and Analysis of DNA Fragmentation. 100×10^6 cells were sedimented and lysed by vortexing in glass beads and homogenisation buffer (50 mM Tris Base pH 7.5, 250 mM Sucrose, 5 mM MgCl2, 1 mM DTT). Cellular lysates were submitted to differential centrifugation where a supernatant from a 1 hour centrifugation at 100,000×g (cytosol) was submitted to 100,000×g centrifugation for 3-5 hours, which sedimented high molecular weight cytosolic proteins/protein complexes. The resulting pellet dissolved in 50 mM Tris Base pH 7.5, 30% Glycerol, 5 mM MgCl2, and 1 mM DTT, and 1 micro-g of high molecular weight protein was used as enzyme in peptidase assays or in Western blotting for TPP II expression. To test the activity of TPP II we used the substrate AAF-AMC (Sigma, St. Louis, Mo.), at 100 micro-M concentration in 100 micro-I of test buffer composed of 50 mM Tri Base pH 7.5, 5 mM MgCl2 and 1 mM DTT. Cleavage activity was measured by emission at 460 nm in a LS50B Luminescence Spectrometer (Perkin Elmer, Boston, Mass.). For analysis of DNA fragmentation cells were seeded in 12-well plates at 10^6 cells/ml and exposed to 25 micro-M etoposide, a DNA topoisomerase II inhibitor commonly used as an apoptosis-inducing agent, to starvation (50% PBS). Cells were seeded at 10^6 cells/ml in 12-well plates and incubated for the indicated times, usually 18-24 hours. DNA from EL-4 control and adapted cells was purified by standard chloroform extraction, and 2.5 micro-g of DNA was loaded on 1.8% agarose gel for detection of DNA from apoptotic cells.
Table 1 contains in vitro data, in fluorometric units which are arbitrary but relative, for the inhibition of cleavage of AAF-AMC (H-Ala-Ala-7-amido-4-methylcoumarin) by compounds at several concentrations. Some beneficial effect is seen for most of the compounds tested.
TPP II protein was enriched, and then a TPP II-preferred fluorogenic substrate AAF-AMC was used. 100×10^6 cells were sedimented and lysed by vortexing in glass beads and homogenisation buffer (50 mM Tris Base pH 7.5, 250 mM Sucrose, 5 mM MgCl2, 1 mM DTT). Cellular lysates were subjected to differential centrifugation; first the cellular homogenate was centrifuged at 14,000 rpm for 15 min, and then the supernatant was transferred to ultra-centrifugation tubes. Next the sample was ultra-centrifugated at 100,000×g for 1 hour, and the supernatant (denoted as cytosol in most biochemical literature) was subjected to 100,000×g centrifugation for 5 hours, which sedimented high molecular weight cytosolic proteins/protein complexes. The resulting pellet dissolved in 50 mM Tris Base pH 7.5, 30% Glycerol, 5 mM MgCl2, and 1 mM DTT, and 1 ug of high molecular weight protein was used as enzyme in peptidase assays.
To test the activity of TPP II we used the substrate and AAF-AMC (Sigma, St. Louis, Mo.), at 100 uM concentration in 100 ul of test buffer composed of 50 mM Tri Base pH 7.5, 5 mM MgCl2 and 1 mM DTT. To stop reactions we used dilution with 900 ul 1% SDS solution. Cleavage activity was measured by emission at 460 nm in a LS50B Luminescence Spectrometer (Perkin Elmer, Boston, Mass.).

Test [3] addresses T1, TPPII. Nature of the test: Immuno-cytochemical staining of TPPII in live EL-4 cells treated with inhibitor. To be noted: 2 hours, 10 micro-M. The arrangement: endogenous in cells; host or cells: EL-4 mouse T-cell lymphoma. Format: cell-based.
Protocol: Immunocytochemistry. Cells were attached to glass cover slips through cytospin and fixed in acetone:methanol (1:1) for 1 hour; then the slides were rehydrated in BSS buffer for 1 hour. The first antibody was added and remained for 1 hour until a brief wash in BSS, after which a secondary conjugate (anti-rabbit-FITC) was added and incubated for 1 hour.
Then the slides were washed and stained with Hoescht 333258 for 30 min. Finally, the slides were mounted with DABCO mounting buffer and kept at 4° C. until analysis.
We performed immuno-cytochemical staining to test whether targeting of TPPII in live cells affected enzyme expression or distribution, by the use of a chicken anti-TPPII serum.
Test [4] relates to EL-4 T-lymphoma cells. Nature of the test: Growth of EL-4 T-lymphoma cells in vivo in syngeneic C57BI/6 mice. More on the design: species or system mouse. To be noted: 13.8 mg/kg Z-GLA-OH added to 5 mg/kg Dexamethasone, twice weekly, C57BI/6 mice (FIG. 9). How it is done:
To test whether our TPPII inhibitors could improve the therapeutic effects of an anti-inflammatory drug in vivo, we examined growth of the T cell-derived lymphoma line EL-4 in vivo, in mice subjected to Cortisone-treatment. We used the derivate Dexamethasone at 5 mg/kg, a dose previously reported to cause thymocyte apoptosis, and a block of T cell responses in vivo (Brewer, J. A., Kanagawa, O., Sleckman, B. P., Muglia, L. J., Thymocyte apoptosis induced by T cell activation is mediated by glucocorticoids in vivo. J. Immunol. 2002, 169:1837-43.). The glucocorticoid receptor of T cells is crucial for curtailing lethal immune activation (Brewer J A, Khor B, Vogt S K, Muglia L M, Fujiwara H, Haegele K E, Sleckman B P, Muglia L J. T-cell glucocorticoid receptor is required to suppress COX-2-mediated lethal immune activation. Nat. Med. 2003 October; 9(10):1318-22.). Inhibited activation and proliferation of T cells in vivo by Dexamethasone-treatment is a standard method to treat patients with auto-immune, inflammatory as well as transplantation rejection diseases. It is however clear that disease symptoms, as well as immune activation and proliferation, are sometimes not controlled by Dexamethasone, or other Cortisone derivatives. […]
5×10^6 EL-4 T-lymphoma cells were inoculated subcutaneously into syngeneic C57BI/6 mice. […] The size of EL-4 lymphoma tumours were measured manually twice weekly. […]

“And” between values parts separate entries of the source, which are not always exact repeats. Identical values can stand only once. The star is where a group is joined. Cbz = O=C(OCc1ccccc1)*

T1 sequence (Q64514 2-1262 limits assumed): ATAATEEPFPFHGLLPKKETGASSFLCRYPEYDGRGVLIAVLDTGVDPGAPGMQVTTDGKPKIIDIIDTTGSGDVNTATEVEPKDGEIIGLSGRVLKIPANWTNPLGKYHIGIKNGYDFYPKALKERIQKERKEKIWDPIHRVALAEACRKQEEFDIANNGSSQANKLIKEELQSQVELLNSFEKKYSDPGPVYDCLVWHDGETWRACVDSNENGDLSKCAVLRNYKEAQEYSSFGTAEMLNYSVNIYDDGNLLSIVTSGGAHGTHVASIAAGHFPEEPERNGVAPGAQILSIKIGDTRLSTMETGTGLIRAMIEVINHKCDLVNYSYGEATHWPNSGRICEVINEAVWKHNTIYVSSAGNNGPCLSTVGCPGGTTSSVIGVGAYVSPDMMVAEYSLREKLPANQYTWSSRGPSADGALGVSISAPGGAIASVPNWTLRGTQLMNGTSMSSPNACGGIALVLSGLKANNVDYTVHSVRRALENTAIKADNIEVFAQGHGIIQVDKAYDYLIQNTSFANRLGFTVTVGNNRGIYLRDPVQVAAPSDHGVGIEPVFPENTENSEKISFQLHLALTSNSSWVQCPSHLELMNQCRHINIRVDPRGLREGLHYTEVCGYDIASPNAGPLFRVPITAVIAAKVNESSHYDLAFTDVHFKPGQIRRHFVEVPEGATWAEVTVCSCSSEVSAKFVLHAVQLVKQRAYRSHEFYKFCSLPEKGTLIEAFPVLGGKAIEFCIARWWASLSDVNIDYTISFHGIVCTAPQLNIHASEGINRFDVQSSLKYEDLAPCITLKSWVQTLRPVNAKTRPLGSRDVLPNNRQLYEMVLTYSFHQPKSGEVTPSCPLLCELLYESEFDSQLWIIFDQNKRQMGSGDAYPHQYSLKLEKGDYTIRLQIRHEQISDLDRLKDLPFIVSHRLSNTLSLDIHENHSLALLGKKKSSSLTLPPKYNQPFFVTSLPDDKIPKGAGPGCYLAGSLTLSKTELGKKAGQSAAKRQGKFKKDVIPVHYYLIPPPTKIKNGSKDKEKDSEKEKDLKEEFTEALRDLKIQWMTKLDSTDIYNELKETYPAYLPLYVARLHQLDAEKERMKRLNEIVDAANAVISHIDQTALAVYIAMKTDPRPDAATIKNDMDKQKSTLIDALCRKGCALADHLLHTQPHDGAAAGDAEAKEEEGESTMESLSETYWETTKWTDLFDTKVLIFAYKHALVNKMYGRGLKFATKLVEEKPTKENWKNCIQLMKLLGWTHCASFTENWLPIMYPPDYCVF

On to Cbz-Gly-Leu-Ala-OH [Z-GLA-OH], for which the “inhibition of Subtilisin” value in test [1] was “found to inhibit”. For the same substance, the “cleavage of AAF-AMC, single reading” value was 32.54 fluorometric units and 32.61 fluorometric units and 33.41 fluorometric units in test [2] (compound 1 nM); 21.74 fluorometric units and 21.93 fluorometric units and 24.44 fluorometric units in test [2] (compound 10 nM); 14.43 fluorometric units and 14.26 fluorometric units and 14.37 fluorometric units in test [2] (compound 100 nM); 11.43 fluorometric units and 11.9 fluorometric units and 11.46 fluorometric units in test [2] (compound 1 uM); 6.47 fluorometric units and 7.66 fluorometric units and 7.49 fluorometric units in test [2] (compound 10 uM); 1.14 fluorometric units and 1.44 fluorometric units and 1.55 fluorometric units in test [2] (compound 100 uM, 0 compound about 47-51). Besides, the “cleavage of AAF-AMC, mean” value in test [2] (compound 1 nM) is recorded as 32.85 fluorometric units; in test [2] (compound 10 nM), 22.70 fluorometric units; in test [2] (compound 100 nM), 14.35 fluorometric units; in test [2] (compound 1 uM), 11.60 fluorometric units; in test [2] (compound 10 uM), 7.21 fluorometric units; in test [2] (compound 100 uM) it was 1.38 fluorometric units. For the same substance, the “detection of TPPII by immuno-cytochemical staining” value in test [3] is on record as “rapid decrease in the detection of TPPII, to almost undetectable levels”. For the same substance, the “anti-proliferative effect on EL-4 cells in vivo, in combination” value in test [4] is listed as “increased the anti-proliferative effects of Dexamethasone in some of the mice”.
